What is called MIC is the smallest concentration in the dilution series that meets the test's criterion for growth inhibition.

In brackets after ≈: the same amount, converted by molar mass. Where two headings read alike, the source gives them in different places. Bounds are passed on as bounds.

For series [1], the system named is E.coli 96 R-. Description: MIC against the infecting strain (Table 4). The note with it: Escherichia coli. The series is classed as cell-based.
For series [2], the system named is S.agalactiae 2798. Description: CD50, protection of mice infected with a lethal inoculum. It counts as in vivo. The note with it: for ED50: read-out: Total CD50. The source says: (§1) The following Table gives CD50 values obtained after infecting groups of mice with a lethal inoculum of various bacteria and treating the mice with the compounds quoted. The CD50 value then represents the amount of compound necessary to protect 50% of the animals.

The test system of series [3] is E.coli 96 R-. Described as above. The series is classed as in vivo.
Description: as §1

Series [4] deals with S.aureus Smith. The description is as above. It counts as in vivo. Conditions: for ED50: Staphylococcus aureus, read-out: Total CD50.
Description: as §1

Series [5] concerns S.agalactiae 2798. Description: MIC against the infecting strain (Table 4). It counts as cell-based. Conditions: Streptococcus agalactiae.
Series [6] deals with S.aureus Smith. Description: MIC against the infecting strain (Table 4). The series is classed as cell-based. Conditions: Staphylococcus aureus.
The nature of series [7]: Squirrel monkey plasma levels. The series is classed as in vivo.
Series [8] relates to S.pyogenes CN 10. Description: Minimum Inhibitory Concentration (MIC), agar dilution. The note with it: 5% v/v horse blood agar, two-fold dilutions, read after 24 hours; unit assumed. It counts as cell-based. How it is done:
(§2) The following Table gives Minimum Inhibitory Concentration (MIC) values for some of the compounds of the invention against S.pyogenes CN 10 and E.coli NCTC 10418. The E. coli was grown in tryptone soya broth and the S. pyogenes was grown in Todd Hewitt broth. The microorganisms were grown for 24hours and lul samples were then inoculated on to agar plates (comprising 5% v/v live horse blood agar) to which had been added the compounds of the invention at a series of two-fold dilutions.

Series [9] relates to E.coli NCTC 10418. The series is described as above. It counts as cell-based. The note with it: 5% v/v horse blood agar, two-fold dilutions, read after 24 hours; unit assumed. How it is done: as §2

`C=C(C)[C@@H](N)C(=O)N[C@@H]1C(=O)N2[C@@H]1SC(C)(C)[C@@H]2C(=O)O` [Example 6, 6,β-(D-2-Amino-3-methylbut-3-enamido)penicillanic-acid]: the results for the minimal inhibitory concentration (MIC) in series [1], in [5] and in series [6] were 4 µg/mL (≈ 12.8 µM), 0.25 µg/mL (≈ 0.798 µM) and 0.12 µg/mL (≈ 0.383 µM), respectively. In addition, the “Total CD50” value worked out at 3.8 mg/kg in series [2] (S.agalactiae 2798, p.o.); 1.1 mg/kg in [2] (S.agalactiae 2798, s.c.); 40 mg/kg in series [3] (p.o.); 0.10 mg/kg in [4] (p.o.). Also, the ED50 in [2] (Streptococcus agalactiae, 2798, po, S.agalactiae 2798, p.o.) was found to be 3.6 mg/kg; in series [2] (Streptococcus agalactiae, 2798, sc, S.agalactiae 2798, s.c.) it was 1.5 mg/kg; in series [3] (Escherichia coli, 96R, po, read-out: Total CD50), 32 mg/kg; in series [4] (po), 0.08 mg/kg; in [4] (sc), 0.15 mg/kg. The concentration at 0.25 h in [7] (15 minutes, read-out: Plasma Levels, Time in Minutes 15) was 8700 ng/mL. The concentration at 0.5 h in series [7] (30 minutes, read-out: Plasma Levels, Time in Minutes 30) stood at 16400 ng/mL. Further, the concentration at 1 h in series [7] (60 minutes, read-out: Plasma Levels, Time in Minutes 60) was determined as 20000 ng/mL. The concentration at 2 h in [7] (120 minutes, read-out: Plasma Levels, Time in Minutes 120) was 13000 ng/mL. Moreover, the concentration at 4 h in [7] (240 minutes, read-out: Plasma Levels, Time in Minutes 240) stood at 2200 ng/mL. In addition, the concentration at 6 h in series [7] (360 minutes, read-out: Plasma Levels, Time in Minutes 360) was 900 ng/mL. Besides, the AUC in [7] (read-out: Area under the curve) turned out to be 46500 ng·h/mL. The MIC S. pyogenes CN 10 in [8] is < 0.03 µg/mL. The MIC E. coli NCTC 10418 in series [9] was 2 µg/mL (≈ 6.38 µM).
